According to patent US20240208992A1, “MACROCYCLES AS CFTR MODULATORS” (Idorsia Pharmaceuticals Ltd, priority 2021, published 2024):

Target: human F508del-CFTR (Homo sapiens, UniProt P13569, DEL508-508)
Experiment: F508del-CFTR cell surface expression (corrector activity), DiscoveRx ß-galactosidase complementation chemiluminescence assay in recombinant U2OS cell line;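 also: U2OS cells co-expressing ProLink-tagged F508del-CFTR and a membrane-anchored enzyme acceptor, where more surface CFTR restores β-galactosidase activity measured by chemiluminescence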
Conditions: for EC50: EC50, F508del-CFTR cell surface expression, 16h compound incubation, geomean values; for Emax: U2OS, in relation to Emax of corrector lumacaftor (=100%), arithmetic mean values

Sequence of human F508del-CFTR (P13569 with tags, fused parts or gaps DEL508-508): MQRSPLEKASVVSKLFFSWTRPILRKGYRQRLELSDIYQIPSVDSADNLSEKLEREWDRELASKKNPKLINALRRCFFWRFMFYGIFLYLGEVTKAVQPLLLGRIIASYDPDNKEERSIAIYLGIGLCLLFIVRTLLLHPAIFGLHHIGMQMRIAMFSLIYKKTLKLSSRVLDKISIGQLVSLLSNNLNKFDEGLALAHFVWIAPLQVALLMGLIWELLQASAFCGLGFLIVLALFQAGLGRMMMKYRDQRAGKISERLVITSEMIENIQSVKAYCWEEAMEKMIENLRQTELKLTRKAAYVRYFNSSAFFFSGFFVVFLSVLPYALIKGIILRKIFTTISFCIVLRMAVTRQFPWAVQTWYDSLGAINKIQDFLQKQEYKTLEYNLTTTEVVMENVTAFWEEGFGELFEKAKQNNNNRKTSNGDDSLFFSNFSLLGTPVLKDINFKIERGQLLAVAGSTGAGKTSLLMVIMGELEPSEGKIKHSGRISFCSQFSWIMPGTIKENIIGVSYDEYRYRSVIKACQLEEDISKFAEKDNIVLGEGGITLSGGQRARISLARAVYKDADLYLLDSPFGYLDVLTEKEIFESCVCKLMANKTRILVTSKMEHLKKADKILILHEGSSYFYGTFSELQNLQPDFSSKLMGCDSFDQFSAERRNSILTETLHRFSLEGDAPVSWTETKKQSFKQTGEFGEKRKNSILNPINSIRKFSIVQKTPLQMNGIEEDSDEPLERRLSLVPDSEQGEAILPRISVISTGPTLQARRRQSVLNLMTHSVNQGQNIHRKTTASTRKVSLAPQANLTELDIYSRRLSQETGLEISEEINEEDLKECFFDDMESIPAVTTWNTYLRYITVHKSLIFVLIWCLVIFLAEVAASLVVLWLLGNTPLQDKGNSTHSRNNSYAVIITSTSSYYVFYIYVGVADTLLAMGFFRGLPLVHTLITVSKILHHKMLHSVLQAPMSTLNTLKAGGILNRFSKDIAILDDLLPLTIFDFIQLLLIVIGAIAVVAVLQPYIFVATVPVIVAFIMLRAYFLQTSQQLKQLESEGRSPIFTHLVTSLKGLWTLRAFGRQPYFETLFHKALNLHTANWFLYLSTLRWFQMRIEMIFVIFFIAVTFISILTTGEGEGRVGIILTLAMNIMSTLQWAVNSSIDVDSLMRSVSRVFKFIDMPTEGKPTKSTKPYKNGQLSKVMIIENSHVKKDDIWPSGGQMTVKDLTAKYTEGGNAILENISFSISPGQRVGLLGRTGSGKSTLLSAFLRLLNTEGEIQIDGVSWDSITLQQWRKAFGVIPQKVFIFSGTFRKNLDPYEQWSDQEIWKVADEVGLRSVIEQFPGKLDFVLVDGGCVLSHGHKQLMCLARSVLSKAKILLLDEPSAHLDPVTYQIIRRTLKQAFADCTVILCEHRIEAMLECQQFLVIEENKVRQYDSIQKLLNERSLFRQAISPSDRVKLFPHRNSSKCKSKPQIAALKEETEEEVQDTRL

SMILES	EC50 (U2OS cell line) [nM]	EC50 (U2OS cells) [nM]	Emax [%]
CN1C(=O)C[C@@H](C(=O)NCCc2ccc3c(c2)OCO3)NC(=O)c2c(ccc3ccccc23)OC[C@@H](Cc2ccccc2)NC(=O)CN(CCC2CCCCC2)C(=O)[C@@H]1CC1CCCC1 (mixture of isomers) [Example 290, (3RS,7S,13R)-N-(2-(benzo[d][1,3]dioxol-5-yl)ethyl)-13-benzyl-9-(2-cyclohexylethyl)-7-(cyclopentylmethyl)-6-methyl-1,5,8,11-tetraoxo-1,2,3,4,5,6,7,8,9,10,11,12,13,14-tetradecahydronaphtho[1,2-p][1]oxa[4,7,10,14]tetraazacycloheptadecine-3-carboxamide]	188		
CN1C(=O)C[C@@H](C(=O)NCCc2ccc3c(c2)OCO3)NC(=O)c2c(ccc3ccccc23)OC[C@@H](Cc2ccccc2)NC(=O)CN(CCC2CCCCC2)C(=O)[C@@H]1CC1CCC1 (mixture of isomers) [Example 292, (3RS,7S,13R)-N-(2-(benzo[d][1,3]dioxol-5-yl)ethyl)-13-benzyl-7-(cyclobutylmethyl)-9-(2-cyclohexylethyl)-6-methyl-1,5,8,11-tetraoxo-1,2,3,4,5,6,7,8,9,10,11,12,13,14-tetradecahydronaphtho[1,2-p][1]oxa[4,7,10,14]tetraazacycloheptadecine-3-carboxamide]	114		
COc1cccc(CCNC(=O)[C@@H]2CC(=O)N(C)[C@@H](CC3CCCC3)C(=O)N(C[C@@H]3CCCCO3)CC(=O)N[C@H](Cc3ccccc3)COc3ccc4ccccc4c3C(=O)N2)c1 (mixture of isomers) [Example 293, (3RS,7S,13R)-13-benzyl-7-(cyclopentylmethyl)-N-(3-methoxyphenethyl)-6-methyl-1,5,8,11-tetraoxo-9-(((S)-tetrahydro-2H-pyran-2-yl)methyl)-1,2,3,4,5,6,7,8,9,10,11,12,13,14-tetradecahydronaphtho[1,2-p][1]oxa[4,7,10,14]tetraazacycloheptadecine-3-carboxamide]	340		
COc1cccc(CCNC(=O)[C@@H]2CC(=O)N(C)[C@@H](CC3CCCC3)C(=O)N(C[C@@H]3CCCCO3)CC(=O)N[C@H](Cc3ccccc3)COc3ccc4ccccc4c3C(=O)N2)c1 (mixture of isomers) [Example 295, (3RS,7S,13R)-13-benzyl-7-(cyclopentylmethyl)-N-(3-methoxyphenethyl)-6-methyl-1,5,8,11-tetraoxo-9-(((R)-tetrahydro-2H-pyran-2-yl)methyl)-1,2,3,4,5,6,7,8,9,10,11,12,13,14-tetradecahydronaphtho[1,2-p][1]oxa[4,7,10,14]tetraazacycloheptadecine-3-carboxamide]	202		
COc1cccc(CCNC(=O)[C@@H]2CC(=O)N(C)[C@@H](CC3CCCCC3)C(=O)N(C[C@H]3CCCCO3)CC(=O)N[C@H](Cc3ccccc3)COc3ccc4ccccc4c3C(=O)N2)c1 (mixture of isomers) [Example 296, (3RS,7S,13R)-13-benzyl-7-(cyclohexylmethyl)-N-(3-methoxyphenethyl)-6-methyl-1,5,8,11-tetraoxo-9-(((R)-tetrahydro-2H-pyran-2-yl)methyl)-1,2,3,4,5,6,7,8,9,10,11,12,13,14-tetradecahydronaphtho[1,2-p][1]oxa[4,7,10,14]tetraazacycloheptadecine-3-carboxamide]	158		
COc1cccc(CCNC(=O)[C@@H]2CC(=O)N(C)[C@@H](CC3CCCC3)C(=O)N(CCC3CCCCC3)CC(=O)N[C@H](Cc3ccccc3)COc3ccc4ccccc4c3C(=O)N2)c1 (mixture of isomers) [Example 300, (3RS,7S,13R)-13-benzyl-9-(2-cyclohexylethyl)-7-(cyclopentylmethyl)-N-(3-methoxyphenethyl)-6-methyl-1,5,8,11-tetraoxo-1,2,3,4,5,6,7,8,9,10,11,12,13,14-tetradecahydronaphtho[1,2-p][1]oxa[4,7,10,14]tetraazacycloheptadecine-3-carboxamide]	103		
COc1cccc(CCNC(=O)[C@@H]2CC(=O)N(C)[C@@H](CC3CCCCC3)C(=O)N(CCC3CCCCC3)CC(=O)N[C@H](Cc3ccccc3)COc3ccc4ccccc4c3C(=O)N2)c1 (mixture of isomers) [Example 301, (3RS,7S,13R)-13-benzyl-9-(2-cyclohexylethyl)-7-(cyclohexylmethyl)-N-(3-methoxyphenethyl)-6-methyl-1,5,8,11-tetraoxo-1,2,3,4,5,6,7,8,9,10,11,12,13,14-tetradecahydronaphtho[1,2-p][1]oxa[4,7,10,14]tetraazacycloheptadecine-3-carboxamide]	112		
COc1cc2c(cn1)OC[C@@H](Cc1ccccc1)NC(=O)[C@@H]1CCCCN1C(=O)[C@H](CC(C)C)N(C)C(=O)C[C@@H](C(=O)NCCc1noc(C3CC3)n1)NC2=O (mixture of isomers) [Example 516, (7S,11S,17aRS,20R)-20-benzyl-N-(2-(5-cyclopropyl-1,2,4-oxadiazol-3-yl)ethyl)-11-isobutyl-3-methoxy-10-methyl-5,9,12,18-tetraoxo-5,6,7,8,9,10,11,12,15,16,17,17a,18,19,20,21-hexadecahydro-14H-dipyrido[2,1-f:4′,3′-p][1]oxa[4,7,10,14]tetraazacycloheptadecine-7-carboxamide]		494	155
COc1cccc(CCNC(=O)[C@@H]2CC(=O)N(C)[C@@H](CC(C)C)C(=O)N3CCc4ccccc4[C@H]3C(=O)N[C@H](Cc3ccccc3)COc3ccnc(OC)c3C(=O)N2)c1 (mixture of isomers) [Example 569, (7S,11S,19bRS,22R)-22-benzyl-11-isobutyl-4-methoxy-N-(3-methoxyphenethyl)-10-methyl-5,9,12,20-tetraoxo-5,6,7,8,9,10,11,12,15,19b,20,21,22,23-tetradecahydro-14H-pyrido[3′,4′:16,17][1]oxa[4,7,10,14]tetraazacycloheptadecino[6,7-a]isoquinoline-7-carboxamide]		108	270
COc1cccc(CCNC(=O)[C@@H]2CC(=O)N(C)[C@@H](CC(C)C)C(=O)N(C)[C@@H](C)C(=O)N[C@H](Cc3ccccc3)COc3ccc4cc(C)oc4c3C(=O)N2)c1 (mixture of isomers) [Example 575, (8R,11RS,14S,18S)-8-benzyl-14-isobutyl-N-(3-methoxyphenethyl)-2,11,12,15-tetramethyl-10,13,16,20-tetraoxo-7,8,9,10,11,12,13,14,15,16,17,18,19,20-tetradecahydrobenzofuro[7,6-p][1]oxa[4,7,10,14]tetraazacycloheptadecine-18-carboxamide]		411	273
Cc1cc(CCNC(=O)[C@@H]2CC(=O)N(C)[C@@H](CC(C)C)C(=O)N(C)[C@@H](C)C(=O)N[C@H](Cc3ccccc3)COc3ccc4cc(C)oc4c3C(=O)N2)on1 (mixture of isomers) [Example 576, (8R,11RS,14S,18S)-8-benzyl-14-isobutyl-2,11,12,15-tetramethyl-N-(2-(3-methylisoxazol-5-yl)ethyl)-10,13,16,20-tetraoxo-7,8,9,10,11,12,13,14,15,16,17,18,19,20-tetradecahydrobenzofuro[7,6-p][1]oxa[4,7,10,14]tetraazacycloheptadecine-18-carboxamide]		523	268
COc1cccc(CCNC(=O)[C@@H]2CC(=O)N(C)[C@@H](CC(C)C)C(=O)N3CCOC[C@H]3C(=O)N[C@H](Cc3ccccc3)COc3ccc4c(C)noc4c3C(=O)N2)c1 (mixture of isomers) [Example 624, (4aRS,7R,17S,21S)-7-benzyl-21-isobutyl-N-(3-methoxyphenethyl)-12,20-dimethyl-5,15,19,22-tetraoxo-1,2,4,4a,5,6,7,8,15,16,17,18,19,20,21,22-hexadecahydroisoxazolo[4′,5′:5,6]benzo[1,2-p][1,4]oxazino[3,4-f][1]oxa[4,7,10,14]tetraazacycloheptadecine-17-carboxamide]		921	171
COc1cc2c(cn1)OC[C@@H](Cc1ccccc1)NC(=O)[C@@H]1CCCCN1C(=O)[C@H](CC(C)C)N(C)C(=O)C[C@@H](C(=O)NCCc1cc(C3CC3)no1)NC2=O (mixture of isomers) [Example 652, (7S,11S,17aRS,20R)-20-benzyl-N-(2-(3-cyclopropylisoxazol-5-yl)ethyl)-11-isobutyl-3-methoxy-10-methyl-5,9,12,18-tetraoxo-5,6,7,8,9,10,11,12,15,16,17,17a,18,19,20,21-hexadecahydro-14H-dipyrido[2,1-f:4′,3′-p][1]oxa[4,7,10,14]tetraazacycloheptadecine-7-carboxamide]		593	155
COc1cccc(CCNC(=O)[C@@H]2CC(=O)N(C)[C@@H](CC(C)C)C(=O)N(C)[C@@H](COC(C)(C)C)C(=O)N[C@H](Cc3ccccc3)COc3ccc4ccccc4c3C(=O)N2)c1 (mixture of isomers) [Example 717, (3S,7S,10RS,13R)-13-benzyl-10-(tert-butoxymethyl)-7-isobutyl-N-(3-methoxyphenethyl)-6,9-dimethyl-1,5,8,11-tetraoxo-1,2,3,4,5,6,7,8,9,10,11,12,13,14-tetradecahydronaphtho[1,2-p][1]oxa[4,7,10,14]tetraazacycloheptadecine-3-carboxamide]		69	348
COc1cccc(CCNC(=O)[C@@H]2CC(=O)N(C)[C@@H](CC(C)C)C(=O)N(C)[C@@H](CO)C(=O)N[C@H](Cc3ccccc3)COc3ccc4ccccc4c3C(=O)N2)c1 (mixture of isomers) [Example 718, (3S,7S,10RS,13R)-13-benzyl-10-(hydroxymethyl)-7-isobutyl-N-(3-methoxyphenethyl)-6,9-dimethyl-1,5,8,11-tetraoxo-1,2,3,4,5,6,7,8,9,10,11,12,13,14-tetradecahydronaphtho[1,2-p][1]oxa[4,7,10,14]tetraazacycloheptadecine-3-carboxamide]		359	
